Experimental data as given in patent US20250171459A1, “2-METHYL-4',5'-DIHYDROSPIRO[PIPERIDINE-4,7'-THIENO[2,3-C]PYRAN] DERIVATIVES AS INHIBITORS OF APOL1 AND METHODS OF USING SAME” (Vertex Pharmaceuticals Incorporated, priority 2022, published 2025).

Target: T1, APOL1 (Homo sapiens, UniProt O14791)
T1 sequence (O14791 1-398 S342G/I384M): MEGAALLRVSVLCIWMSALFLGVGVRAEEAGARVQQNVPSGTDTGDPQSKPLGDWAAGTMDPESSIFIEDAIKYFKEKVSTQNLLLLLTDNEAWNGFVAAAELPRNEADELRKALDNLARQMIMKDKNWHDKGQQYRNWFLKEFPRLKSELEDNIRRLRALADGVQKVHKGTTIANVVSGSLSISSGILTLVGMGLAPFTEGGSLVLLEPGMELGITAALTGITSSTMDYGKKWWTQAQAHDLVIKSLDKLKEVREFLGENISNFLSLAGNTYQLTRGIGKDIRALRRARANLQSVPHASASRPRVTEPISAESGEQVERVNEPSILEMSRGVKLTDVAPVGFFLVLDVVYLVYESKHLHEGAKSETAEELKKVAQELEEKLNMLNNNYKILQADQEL
Assay: MultiTox-Fluor Multiplex Cytotoxicity Assay in tet-inducible APOL1 T-REx-HEK293 cells (cell rescue, ratio of dead to live cells)
Type: cell-based
Conditions: tet-inducible transgenic APOL1 T-REx-HEK293 cell lines, 50 ng/mL tet, 24 hours; read-out: IP50 (i.e., IC50 for cell proliferation)
Method in brief: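 T-REx-HEK293 cells with tet-inducible APOL1 were treated with compound (10 μM top, 10-point 3-fold dilution, duplicate) plus 50 ng/mL tetracycline for 24 h at 37° C, in DMEM with 2% tet-free FBS. MultiTox-Fluor protease signals gave a dead/live ratio, normalized to no tet (100% viability) and tet alone (0%).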

| SMILES | IC50 |
| --- | --- |
| C[C@H]1C[C@@]2(CCN1Cc1cnn(Cc3nnnn3C)c1)OCCc1c2sc(C(F)(F)F)c1CO [Compound 914] | < 0.1 µM |
| C[C@H]1C[C@@]2(CCN1Cc1cnn(CC3(CO)COC3)c1)OCCc1c2sc(C(F)(F)F)c1CO [Compound 915] | < 0.1 µM |
| CNS(=O)(=O)CCn1cc(CN2CC[C@]3(C[C@@H]2C)OCCc2c3sc(C(F)(F)F)c2CO)cn1 [Compound 916] | < 0.1 µM |
| C[C@H]1C[C@@]2(CCN1Cc1cnn(CC3CCNC(=O)C3)c1)OCCc1c2sc(C(F)(F)F)c1CO (stereo partly drawn) [Compound 917] | < 0.1 µM |
| C[C@H]1C[C@@]2(CCN1Cc1cnn(C[C@H](O)CC#N)c1)OCCc1c2sc(C(F)(F)F)c1CO [Compound 918] | < 0.1 µM |
| C[C@H]1C[C@@]2(CCN1Cc1cnn(Cc3nnco3)c1)OCCc1c2sc(C(F)(F)F)c1CO [Compound 919] | < 0.1 µM |
| C[C@H]1C[C@@]2(CCN1Cc1cnn(Cc3nnc[nH]3)c1)OCCc1c2sc(C(F)(F)F)c1CO [Compound 920] | 0.1 to 0.5 µM |
| C[C@H]1C[C@@]2(CCN1Cc1cnn(CC3CNC(=O)C3)c1)OCCc1c2sc(C(F)(F)F)c1CO (stereo partly drawn) [Compound 921] | < 0.1 µM |
| C[C@H]1C[C@@]2(CCN1Cc1cnn(C[C@@H]3CCC(=O)N3)c1)OCCc1c2sc(C(F)(F)F)c1CO [Compound 922] | < 0.1 µM |
| Cc1nnc(Cn2cc(CN3CC[C@]4(C[C@@H]3C)OCCc3c4sc(C(F)(F)F)c3CO)cn2)o1 [Compound 923] | < 0.1 µM |
| C[C@H]1C[C@@]2(CCN1Cc1cnn(CS(=O)(=O)N(C)C)c1)OCCc1c2sc(C(F)(F)F)c1CO [Compound 924] | < 0.1 µM |
| CC(c1nnc[nH]1)n1cc(CN2CC[C@]3(C[C@@H]2C)OCCc2c3sc(C(F)(F)F)c2CO)cn1 (stereo partly drawn) [Compound 925] | 0.1 to 0.5 µM |
| C[C@H]1C[C@@]2(CCN1Cc1cnn(CCC(N)=O)c1)OC[C@@H](O)c1cc(C(F)(F)F)sc12 [Compound 926] | < 0.1 µM |
| C[C@H]1C[C@@]2(CCN1Cc1cnn(CCCC(N)=O)c1)OC[C@@H](O)c1cc(C(F)(F)F)sc12 [Compound 927] | < 0.1 µM |
| C[C@H]1C[C@@]2(CCN1Cc1cnn(CC(=O)NC3CC3)c1)OC[C@@H](O)c1cc(C(F)(F)F)sc12 [Compound 928] | < 0.1 µM |
| C=C(CO)n1cc(CN2CC[C@]3(C[C@@H]2C)OCCc2c3sc(C(F)(F)F)c2CO)cn1 [Compound 929, 2-[4-[[(2′S,7R)-3-(hydroxymethyl)-2′-methyl-2-(trifluoromethyl)spiro[4,5-dihydrothieno[2,3-c]pyran-7,4′-piperidine]-1′-yl]methyl]pyrazol-1-yl]prop-2-en-1-ol] | < 0.1 µM |
| C[C@H]1C[C@@]2(CCN1Cc1cnn(CC(O)C3(O)CCOCC3)c1)OCCc1c2sc(C(F)(F)F)c1CO (stereo partly drawn) [Compound 930, 4-[1-hydroxy-2-[4-[[(2′S, 7R)-3-(hydroxymethyl)-2′-methyl-2-(trifluoromethyl)spiro[4,5-dihydro-thieno[2,3-c]pyran-7,4′-piperidine]-1′-yl]methyl]pyrazol-1-yl]ethyl]tetrahydropyran-4-ol] | < 0.1 µM |
| CC(O)Cn1cc(CN2CC[C@]3(C[C@@H]2C)OCCc2c3sc(C(F)(F)F)c2CO)cn1 (stereo partly drawn) [Compound 931] | < 0.1 µM |
| C[C@H]1C[C@@]2(CCN1Cc1cnn(CC(O)C(N)=O)c1)OCCc1c2sc(C(F)(F)F)c1CO (stereo partly drawn) [Compound 932] | < 0.1 µM |
| C[C@H]1C[C@@]2(CCN1Cc1cnn(CC(O)C3(O)COC3)c1)OCCc1c2sc(C(F)(F)F)c1CO (stereo partly drawn) [Compound 933] | < 0.1 µM |
| C[C@H]1C[C@@]2(CCN1Cc1cnn(CC(O)CO)c1)OCCc1c2sc(C(F)(F)F)c1CO (stereo partly drawn) [Compound 934] | < 0.1 µM |
| C[C@H]1C[C@@]2(CCN1Cc1cnn(CC(O)C3(CO)CCC3)c1)OCCc1c2sc(C(F)(F)F)c1CO (stereo partly drawn) [Compound 935] | < 0.1 µM |
| C[C@H]1C[C@@]2(CCN1Cc1cnn(CC(C)(O)CO)c1)OCCc1c2sc(C(F)(F)F)c1CO (stereo partly drawn) [Compound 936] | < 0.1 µM |
| C[C@H]1C[C@@]2(CCN1Cc1cnn(CC(O)c3ccc(F)cn3)c1)OCCc1c2sc(C(F)(F)F)c1CO (stereo partly drawn) [Compound 937] | < 0.1 µM |
